Where two headings read alike, the source gives them in different places.
Biological target: T1, human apelin receptor (Homo sapiens, UniProt P35414)
T1 construct: expressed in transfected cells
T1 sequence (P35414 1-380): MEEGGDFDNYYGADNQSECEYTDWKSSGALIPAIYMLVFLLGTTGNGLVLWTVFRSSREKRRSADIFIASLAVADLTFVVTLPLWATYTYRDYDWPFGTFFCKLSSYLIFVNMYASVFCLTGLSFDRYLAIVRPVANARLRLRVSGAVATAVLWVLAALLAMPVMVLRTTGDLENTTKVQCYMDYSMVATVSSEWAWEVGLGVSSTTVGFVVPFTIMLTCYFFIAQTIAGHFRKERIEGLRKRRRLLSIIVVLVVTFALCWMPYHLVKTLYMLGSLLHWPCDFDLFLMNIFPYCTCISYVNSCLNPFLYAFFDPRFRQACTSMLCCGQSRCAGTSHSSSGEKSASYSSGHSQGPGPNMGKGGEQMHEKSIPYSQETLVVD
Test: Determination of agonism on the human apelin receptor by a calcium fluorescence assay (FLIPR)
Format: cell-based
Details: HEK293 cells stably transfected with human apelin receptor and Giaq protein, Fluo-4 calcium fluorescence
Summary of the method: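 HEK293 cells stably co-expressing human apelin receptor and promiscuous Giaq, loaded 1 h at 37 °C with Fluo-4 (4 μM) in probenecid-containing Hepes buffer, pH 7.4. Compounds, at least 7 concentrations in triplicate, added in FLIPR Tetra; peak calcium fluorescence normalized to 1 μM apelin-13 as 100% to derive EC50.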

Compound | EC50 (read-out: EC50 (APJ agonism)) | EC50 (EC50 (APJ agonism))
CCC[C@H](CO)NC(=O)c1ccc2c(c1)nc(CC1CCCC1)n2C(CC)CC [Example 185, 2-Cyclopentylmethyl-1-(1-ethyl-propyl)-1H-benzoimidazole-5-carboxylic acid ((R)-1-hydroxymethyl-butyl)-amide] | 14.1 µM | 
CCC(CC)n1c(Cc2cccs2)nc2cc(C(=O)NC(CO)C(C)C)ccc21 (stereo not drawn) [Example 189, 1-(1-Ethyl-propyl)-2-thiophen-2-ylmethyl-1H-benzoimidazole-5-carboxylic acid (1-hydroxymethyl-2-methyl-propyl)-amide] |  | 12.2 µM
CCC(CC)n1c(Cc2cccs2)nc2cc(C(=O)N[C@H](CO)C(C)C)ccc21 [Example 190, 1-(1-Ethyl-propyl)-2-thiophen-2-ylmethyl-1H-benzoimidazole-5-carboxylic acid ((S)-1-hydroxymethyl-2-methyl-propyl)-amide] |  | 6.28 µM
CCC(CC)n1c(Cc2cccs2)nc2cc(C(=O)N[C@@H](CO)CC(C)C)ccc21 [Example 191, 1-(1-Ethyl-propyl)-2-thiophen-2-ylmethyl-1H-benzoimidazole-5-carboxylic acid ((R)-1-hydroxymethyl-3-methyl-butyl)-amide] | 6.29 µM | 
CCC(CC)n1c(Cc2cccs2)nc2cc(C(=O)N[C@H](CO)C(C)(C)C)ccc21 [Example 192, 1-(1-Ethyl-propyl)-2-thiophen-2-ylmethyl-1H-benzoimidazole-5-carboxylic acid ((S)-1-hydroxymethyl-2,2-dimethyl-propyl)-amide] |  | 14 µM
CCC(CC)n1c(Cc2cccs2)nc2cc(C(=O)NC3(CO)CCCC3)ccc21 [Example 193, 1-(1-Ethyl-propyl)-2-thiophen-2-ylmethyl-1H-benzoimidazole-5-carboxylic acid (1-hydroxymethyl-cyclopentyl)-amide] | 6.22 µM | 
CCC(CC)n1c(Cc2cccs2)nc2cc(C(=O)N[C@H](CO)[C@@H](C)CC)ccc21 [Example 194, 1-(1-Ethyl-propyl)-2-thiophen-2-ylmethyl-1H-benzoimidazole-5-carboxylic acid ((1S,2S)-1-hydroxymethyl-2-methyl-butyl)-amide] | 0.96 µM | 
CCCCC(CO)NC(=O)c1ccc2c(c1)nc(Cc1cccs1)n2C(CC)CC (stereo not drawn) [Example 197, 1-(1-Ethyl-propyl)-2-thiophen-2-ylmethyl-1H-benzoimidazole-5-carboxylic acid (1-hydroxymethyl-pentyl)-amide] | 1.04 µM | 
CCCC[C@@H](CO)NC(=O)c1ccc2c(c1)nc(Cc1cccs1)n2C(CC)CC [Example 199, 1-(1-Ethyl-propyl)-2-thiophen-2-ylmethyl-1H-benzoimidazole-5-carboxylic acid ((S)-1-hydroxymethyl-pentyl)-amide] | 0.71 µM | 
CCC[C@H](CO)NC(=O)c1ccc2c(c1)nc(Cc1cccs1)n2C(CC)CC [Example 200, 1-(1-Ethyl-propyl)-2-thiophen-2-ylmethyl-1H-benzoimidazole-5-carboxylic acid ((R)-1-hydroxymethyl-butyl)-amide] | 8.18 µM | 
CCC(CC)n1c(Cc2cccs2)nc2cc(C(=O)NC(CO)c3ccccc3)ccc21 (stereo not drawn) [Example 202, 1-(1-Ethyl-propyl)-2-thiophen-2-ylmethyl-1H-benzoimidazole-5-carboxylic acid (2-hydroxy-1-phenyl-ethyl)-amide] | 14.4 µM | 
CCC(CC)n1c(Cc2cccs2)nc2cc(C(=O)N[C@@H](CO)C3CCCCC3)ccc21 [Example 203, 1-(1-Ethyl-propyl)-2-thiophen-2-ylmethyl-1H-benzoimidazole-5-carboxylic acid ((R)-1-cyclohexyl-2-hydroxy-ethyl)-amide] | 24.7 µM | 
CCC(CC)n1c(Cc2cccs2)nc2cc(C(=O)N[C@H](CO)C3CCCCC3)ccc21 [Example 204, 1-(1-Ethyl-propyl)-2-thiophen-2-ylmethyl-1H-benzoimidazole-5-carboxylic acid ((S)-1-cyclohexyl-2-hydroxy-ethyl)-amide] | 1.99 µM | 
CCC(CC)n1c(Cc2cscn2)nc2cc(C(=O)N[C@H](CO)CC(C)C)ccc21 [Example 205, 1-(1-Ethyl-propyl)-2-thiazol-4-ylmethyl-1H-benzoimidazole-5-carboxylic acid ((S)-1-hydroxymethyl-3-methyl-butyl)-amide] | 1.75 µM | 
CCC(CC)n1c(Cc2cccs2)nc2cc(C(=O)N[C@H](COC)CC(C)C)ccc21 [Example 207, 1-(1-Ethyl-propyl)-2-thiophen-2-ylmethyl-1H-benzoimidazole-5-carboxylic acid ((S)-1-methoxymethyl-3-methyl-butyl)-amide] |  | 0.554 µM
CCOC[C@H](CC(C)C)NC(=O)c1ccc2c(c1)nc(Cc1cccs1)n2C(CC)CC [Example 208, 1-(1-Ethyl-propyl)-2-thiophen-2-ylmethyl-1H-benzoimidazole-5-carboxylic acid ((S)-1-ethoxymethyl-3-methyl-butyl)-amide] | 1.16 µM | 
CCC(CC)n1c(Cc2cccs2)nc2cc(C(=O)N[C@H](CO)CC(C)C)ccc21 [Example 209, 1-(1-Ethyl-propyl)-2-thiophen-2-ylmethyl-1H-benzoimidazole-5-carboxylic acid ((S)-1-hydroxymethyl-3-methyl-butyl)-amide] | 0.254 µM | 
CCCCOC[C@H](CC(C)C)NC(=O)c1ccc2c(c1)nc(Cc1cccs1)n2C(CC)CC [Example 210, 1-(1-Ethyl-propyl)-2-thiophen-2-ylmethyl-1H-benzoimidazole-5-carboxylic acid ((S)-1-butoxymethyl-3-methyl-butyl)-amide] | 10.2 µM | 
CC(C)C[C@@H](CO)NC(=O)c1ccc2c(c1)nc(Cc1cccs1)n2C1CCCCC1C (stereo partly drawn) [Example 211, 1-(2-Methyl-cyclohexyl)-2-thiophen-2-ylmethyl-1H-benzoimidazole-5-carboxylic acid ((S)-1-hydroxymethyl-3-methyl-butyl)-amide] | 0.705 µM | 

Further compounds by falling EC50 (read-out: EC50 (APJ agonism)), results first:

EC50 (read-out: EC50 (APJ agonism)) | Compound | EC50 (EC50 (APJ agonism))
29.9 µM | CCC(CC)n1c(Cc2cccs2)nc2cc(C(=O)NC(CCO)C3CC3)ccc21 (stereo not drawn) [Example 213, 1-(1-Ethyl-propyl)-2-thiophen-2-ylmethyl-1H-benzoimidazole-5-carboxylic acid (1-cyclopropyl-3-hydroxy-propyl)-amide] | 
29 µM | CCC(CC)n1c(CC2CCCC2)nc2cc(C(=O)N[C@H](CO)C(C)C)ccc21 [Example 187, 2-Cyclopentylmethyl-1-(1-ethyl-propyl)-1H-benzoimidazole-5-carboxylic acid ((S)-1-hydroxymethyl-2-methyl-propyl)-amide] | 
15.2 µM | CCC(CC)n1c(Cc2cccs2)nc2cc(C(=O)N[C@@H](CO)CCSC)ccc21 [Example 195, 1-(1-Ethyl-propyl)-2-thiophen-2-ylmethyl-1H-benzoimidazole-5-carboxylic acid ((R)-1-hydroxymethyl-3-methylsulfanyl-propyl)-amide] | 
9.29 µM | CCC(CC)n1c(Cc2cccs2)nc2cc(C(=O)NC(CCO)c3ccsc3)ccc21 (stereo not drawn) [Example 212, 1-(1-Ethyl-propyl)-2-thiophen-2-ylmethyl-1H-benzoimidazole-5-carboxylic acid (3-hydroxy-1-thiophen-3-yl-propyl)-amide] | 
8.88 µM | CCCC[C@H](CO)NC(=O)c1ccc2c(c1)nc(Cc1cccs1)n2C(CC)CC [Example 198, 1-(1-Ethyl-propyl)-2-thiophen-2-ylmethyl-1H-benzoimidazole-5-carboxylic acid ((R)-1-hydroxymethyl-pentyl)-amide] | 
4.67 µM | CCC[C@@H](CO)NC(=O)c1ccc2c(c1)nc(CC1CCCC1)n2C(CC)CC [Example 186, 2-Cyclopentylmethyl-1-(1-ethyl-propyl)-1H-benzoimidazole-5-carboxylic acid ((S)-1-hydroxymethyl-butyl)-amide] | 
4.52 µM | CCC(CC)n1c(Cc2cccs2)nc2cc(C(=O)N[C@H](CO)CCSC)ccc21 [Example 188, 1-(1-Ethyl-propyl)-2-thiophen-2-ylmethyl-1H-benzoimidazole-5-carboxylic acid ((S)-1-hydroxymethyl-3-methylsulfanyl-propyl)-amide] | 
2.3 µM | CCC(CC)n1c(Cc2cscn2)nc2cc(C(=O)N[C@H](COC)CC(C)C)ccc21 [Example 206, 1-(1-Ethyl-propyl)-2-thiazol-4-ylmethyl-1H-benzoimidazole-5-carboxylic acid ((S)-1-methoxymethyl-3-methyl-butyl)-amide] | 
0.926 µM | CCCC(CCO)NC(=O)c1ccc2c(c1)nc(Cc1cccs1)n2C(CC)CC (stereo not drawn) [Example 214, 1-(1-Ethyl-propyl)-2-thiophen-2-ylmethyl-1H-benzoimidazole-5-carboxylic acid [1-(2-hydroxy-ethyl)-butyl]-amide] | 
0.922 µM | CCCC(CO)NC(=O)c1ccc2c(c1)nc(Cc1cccs1)n2C(CC)CC (stereo not drawn) [Example 196, 1-(1-Ethyl-propyl)-2-thiophen-2-ylmethyl-1H-benzoimidazole-5-carboxylic acid (1-hydroxymethyl-butyl)-amide] | 
0.334 µM | CCC[C@@H](CO)NC(=O)c1ccc2c(c1)nc(Cc1cccs1)n2C(CC)CC [Example 201, 1-(1-Ethyl-propyl)-2-thiophen-2-ylmethyl-1H-benzoimidazole-5-carboxylic acid ((S)-1-hydroxymethyl-butyl)-amide] | 
